{"source": "paper PMC10463010", "about": "(RSC Advances, 2023)", "key": {"[1]": {"assay": "Cytotoxic effect on RAW 264.7 using MTT assay", "format": "cell-based", "details": "mouse, RAW 264.7 cells"}, "[2]": {"tested_on": "NO production in RAW264.7 stimulated by LPS", "assay": "NO production in LPS-stimulated RAW 264.7", "format": "cell-based", "details": "Mus musculus, RAW264.7, read-out: % inhibition of NO production"}, "[3]": {"tested_on": "TNF", "details": "20 μM, LPS stimulated RAW264.7; cited from earlier work"}, "[4]": {"tested_on": "SK-N-SH Cells", "details": "Aβ-induced SK-N-SH cells, increased from 20%; cited from earlier work"}, "[5]": {"biological_target": "acetylcholinesterase (AChE) (Homo sapiens, UniProt P22303)", "sequence (P22303 32-614, species assumed)": "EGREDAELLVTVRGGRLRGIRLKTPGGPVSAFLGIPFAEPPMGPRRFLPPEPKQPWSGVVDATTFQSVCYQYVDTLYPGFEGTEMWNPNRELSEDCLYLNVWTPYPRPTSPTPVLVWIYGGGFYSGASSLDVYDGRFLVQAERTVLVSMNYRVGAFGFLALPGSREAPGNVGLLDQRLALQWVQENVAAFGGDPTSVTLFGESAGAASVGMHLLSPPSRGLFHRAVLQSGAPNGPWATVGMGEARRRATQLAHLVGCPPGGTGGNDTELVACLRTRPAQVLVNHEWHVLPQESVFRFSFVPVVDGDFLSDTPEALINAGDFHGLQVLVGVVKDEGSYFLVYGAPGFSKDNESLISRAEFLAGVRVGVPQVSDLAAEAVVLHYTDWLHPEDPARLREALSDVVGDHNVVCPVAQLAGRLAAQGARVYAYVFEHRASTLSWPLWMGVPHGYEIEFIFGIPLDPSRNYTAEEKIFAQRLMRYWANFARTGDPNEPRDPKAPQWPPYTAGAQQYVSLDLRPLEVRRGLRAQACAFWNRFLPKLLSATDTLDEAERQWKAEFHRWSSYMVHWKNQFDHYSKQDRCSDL", "assay": "Acetylcholinesterase inhibition assay", "format": "biochemical"}, "[6]": {"tested_on": "TNF-α", "assay": "TNF-α level in LPS-induced RAW 264.7", "format": "cell-based", "details": "RAW 264.7, in comparison to LPS treated cells"}, "[7]": {"tested_on": "IL-1β", "assay": "IL-1β level in LPS-induced RAW 264.7", "format": "cell-based", "details": "RAW 264.7, in comparison to LPS treated cells"}, "[8]": {"assay": "In vitro hydrolysis / chemical stability in buffers", "format": "physicochemical", "details": "0.1 M HCl (simulated gastric conditions), pH 1.4"}, "[9]": {"tested_on": "IL-6", "assay": "IL-6 level in LPS-induced RAW 264.7", "format": "cell-based"}}, "data": [{"smiles": "COc1ccc(OC)c(/C=N/NC(=O)Cn2cnc3c2c(=O)n(C)c(=O)n3C)c1", "note": "[18c, E-N′-(2,5-Dimethoxybenzylidene)-2-(1,3-dimethyl-2,6-dioxo-1,2,3,6-tetrahydro-7H-purin-7-yl)acetohydrazide]", "values": [{"measurement": "viability at 24 h, 50 µM", "setting": "[1]", "result": "88 ± 0.8", "unit": "%"}, {"measurement": "inhibition at 25 µM", "setting": "[2]", "result": "75 ± 0.88", "unit": "%"}]}, {"smiles": "Cn1c(=O)c2c(ncn2CC(=O)O)n(C)c1=O", "note": "[compound 2, theophylline-7-acetic acid, reference compound]", "values": [{"measurement": "viability at 24 h, 50 µM", "setting": "[1]", "result": "85 ± 1.7", "unit": "%"}, {"measurement": "inhibition at 25 µM", "setting": "[2]", "result": "58.7 ± 1.82", "unit": "%"}]}, {"smiles": "COc1ccc(/C=N/NC(=O)Cn2cnc3c2c(=O)n(C)c(=O)n3C)cc1OC", "note": "[18d, E-N′-(3,4-Dimethoxybenzylidene)-2-(1,3-dimethyl-2,6-dioxo-1,2,3,6-tetrahydro-7H-purin-7-yl)acetohydrazide]", "values": [{"measurement": "viability at 24 h, 50 µM", "setting": "[1]", "result": "90 ± 1", "unit": "%"}, {"measurement": "inhibition at 25 µM", "setting": "[2]", "result": "70.7 ± 0.87", "unit": "%"}]}, {"smiles": "Cn1c(=O)c2[nH]cnc2n(C)c1=O", "note": "[theophylline]", "values": [{"measurement": "Effect on TNF production", "setting": "[3]", "result": "suppress TNF production"}]}, {"smiles": "Cn1c(=O)c2c(ncn2CC(=O)N/N=C/c2ccccc2)n(C)c1=O", "note": "[18a, E-N′-Benzylidene-2-(1,3-dimethyl-2,6-dioxo-1,2,3,6-tetrahydro-7H-purin-7-yl)acetohydrazide]", "values": [{"measurement": "viability at 24 h, 50 µM", "setting": "[1]", "result": "94 ± 0.2", "unit": "%"}, {"measurement": "inhibition at 25 µM", "setting": "[2]", "result": "65.4 ± 0.84", "unit": "%"}]}, {"smiles": "NC(=S)NN=C1C(=O)Nc2ccccc21", "note": "[isatin thiosemicarbazone]", "values": [{"measurement": "Survival rate", "setting": "[4]", "result": "approximately 100%"}]}, {"smiles": "COc1ccc(/C=N/NC(=O)Cn2cnc3c2c(=O)n(C)c(=O)n3C)cc1", "note": "[18l, (E)-2-(1,3-Dimethyl-2,6-dioxo-1,2,3,6-tetrahydro-7H-purin-7-yl)-N′-(4-methoxybenzylidene)acetohydrazide]", "values": [{"measurement": "viability at 24 h, 50 µM", "setting": "[1]", "result": "93 ± 1", "unit": "%"}, {"measurement": "inhibition at 25 µM", "setting": "[2]", "result": "85.4 ± 0.87", "unit": "%"}]}, {"smiles": "Cn1c(=O)c2c(ncn2CC(=O)OCc2cn(-c3cc(=O)oc4ccccc34)nn2)n(C)c1=O", "note": "[15c, (1-(2-Oxo-2H-chromen-4-yl)-1H-1,2,3-triazol-4-yl)methyl-2-(1,3-dimethyl-2,6-dioxo-1,2,3,6-tetrahydro-7H-purin-7-yl)acetate]", "values": [{"measurement": "IC50", "setting": "[5]", "result": "9.8 ± 0.7", "unit": "µM"}, {"measurement": "viability at 24 h, 50 µM", "setting": "[1]", "result": "88 ± 0.8", "unit": "%"}, {"measurement": "inhibition at 25 µM", "setting": "[2]", "result": "85 ± 0.88", "unit": "%"}]}, {"smiles": "COc1ccc(/C=N/NC(=O)Cn2cnc3c2c(=O)n(C)c(=O)n3C)cc1O", "note": "[18i, (E)-2-(1,3-Dimethyl-2,6-dioxo-1,2,3,6-tetrahydro-7H-purin-7-yl)-N′-(3-hydroxy-4-methoxybenzylidene)acetohydrazide]", "values": [{"measurement": "viability at 24 h, 50 µM", "setting": "[1]", "result": "105 ± 1.2", "unit": "%"}, {"measurement": "inhibition at 25 µM", "setting": "[2]", "result": "63.2 ± 0.93", "unit": "%"}]}, {"smiles": "COc1cc(/C=N/NC(=O)Cn2cnc3c2c(=O)n(C)c(=O)n3C)cc(OC)c1OC", "note": "[18e, (E)-2-(1,3-Dimethyl-2,6-dioxo-1,2,3,6-tetrahydro-7H-purin-7-yl)-N′-(3,4,5-trimethoxybenzylidene)acetohydrazide]", "values": [{"measurement": "viability at 24 h, 50 µM", "setting": "[1]", "result": "92 ± 1", "unit": "%"}, {"measurement": "inhibition at 25 µM", "setting": "[2]", "result": "71.8 ± 0.9", "unit": "%"}]}, {"smiles": "Cn1c(=O)c2c(ncn2CC(=O)N/N=C/c2ccc(O)cc2)n(C)c1=O", "note": "[18b, (E)-2-(1,3-Dimethyl-2,6-dioxo-1,2,3,6-tetrahydro-7H-purin-7-yl)-N′-(4-hydroxybenzylidene)acetohydrazide]", "values": [{"measurement": "viability at 24 h, 50 µM", "setting": "[1]", "result": "87 ± 0.8", "unit": "%"}, {"measurement": "inhibition at 25 µM", "setting": "[2]", "result": "71.8 ± 0.9", "unit": "%"}]}, {"smiles": "COC(=O)[C@@H](N)CCCNC(N)=N[N+](=O)[O-]", "note": "[L-NAME, L-NG-nitro arginine methyl ester, reference compound]", "values": [{"measurement": "inhibition at 250 µM", "setting": "[2]", "result": "84.8 ± 0.9", "unit": "%"}]}, {"smiles": "Cn1c(=O)c2c(ncn2CC(=O)N/N=C2/C(=O)Nc3ccccc32)n(C)c1=O", "note": "[compound 19, (E)-2-(1,3-Dimethyl-2,6-dioxo-1,2,3,6-tetrahydro-7H-purin-7-yl)-N′-(2-oxoindolin-3-ylidene)acetohydrazide]", "values": [{"measurement": "IC50", "setting": "[5]", "result": "3.3 ± 0.2", "unit": "µM"}, {"measurement": "viability at 24 h, 50 µM", "setting": "[1]", "result": "89.5 ± 1.1", "unit": "%"}, {"measurement": "Reduction of TNF-α", "setting": "[6]; 1 μM", "result": 31.8, "unit": "%"}, {"measurement": "Reduction of TNF-α", "setting": "[6]; 10 μM", "result": 53, "unit": "%"}, {"measurement": "Reduction of IL-1β", "setting": "[7]; 1 μM", "result": 49.4, "unit": "%"}, {"measurement": "Downregulation of IL-1β", "setting": "[7]; 10 μM", "result": 66.7, "unit": "%"}, {"measurement": "inhibition at 25 µM", "setting": "[2]", "result": "90 ± 0.88", "unit": "%"}, {"measurement": "half-life at 75 μM", "setting": "[8]", "result": 1.8, "unit": "h"}, {"measurement": "Decrease of IL-6 levels", "setting": "[9]; 1 μM, RAW 264.7, in comparison to cells induced by LPS", "result": 47.5, "unit": "%"}, {"measurement": "Decrease of IL-6 levels", "setting": "[9]; 10 μM, RAW 264.7, in comparison to LPS treated cells", "result": 57.7, "unit": "%"}]}, {"smiles": "Cn1c(=O)c2c(ncn2CC(=O)N/N=C/c2ccccc2O)n(C)c1=O", "note": "[18g, (E)-2-(1,3-Dimethyl-2,6-dioxo-1,2,3,6-tetrahydro-7H-purin-7-yl)-N′-(2-hydroxybenzylidene)acetohydrazide]", "values": [{"measurement": "viability at 24 h, 50 µM", "setting": "[1]", "result": "92 ± 1", "unit": "%"}, {"measurement": "inhibition at 25 µM", "setting": "[2]", "result": "66.4 ± 0.79", "unit": "%"}]}, {"smiles": "Cn1c(=O)c2c(ncn2CC(=O)N/N=C/c2ccc3c(c2)OCO3)n(C)c1=O", "note": "[18h, (E)-N′-(Benzo[d][1,3]dioxol-5-ylmethylene)-2-(1,3-dimethyl-2,6-dioxo-1,2,3,6-tetrahydro-7H-purin-7-yl)acetohydrazide]", "values": [{"measurement": "viability at 24 h, 50 µM", "setting": "[1]", "result": "93 ± 1", "unit": "%"}, {"measurement": "inhibition at 25 µM", "setting": "[2]", "result": "96.6 ± 0.87", "unit": "%"}]}, {"smiles": "COc1cc(/C=N/NC(=O)Cn2cnc3c2c(=O)n(C)c(=O)n3C)ccc1O", "note": "[18j, (E)-2-(1,3-Dimethyl-2,6-dioxo-1,2,3,6-tetrahydro-7H-purin-7-yl)-N′-(4-hydroxy-3-methoxybenzylidene)acetohydrazide]", "values": [{"measurement": "IC50", "setting": "[5]", "result": "14.6 ± 0.5", "unit": "µM"}, {"measurement": "viability at 24 h, 50 µM", "setting": "[1]", "result": "89 ± 1", "unit": "%"}, {"measurement": "inhibition at 25 µM", "setting": "[2]", "result": "92.2 ± 0.86", "unit": "%"}]}, {"smiles": "COc1cccc(/C=N/NC(=O)Cn2cnc3c2c(=O)n(C)c(=O)n3C)c1", "note": "[18f, (E)-2-(1,3-Dimethyl-2,6-dioxo-1,2,3,6-tetrahydro-7H-purin-7-yl)-N′-(3-methoxybenzylidene)acetohydrazide]", "values": [{"measurement": "viability at 24 h, 50 µM", "setting": "[1]", "result": "91 ± 1", "unit": "%"}, {"measurement": "inhibition at 25 µM", "setting": "[2]", "result": "63.2 ± 0.93", "unit": "%"}]}, {"smiles": "Cc1ccc(C(C)C)c(OC(=O)Cn2cc(COC(=O)Cn3cnc4c3c(=O)n(C)c(=O)n4C)nn2)c1", "note": "[15b, (1-(2-(2-Isopropyl-5-methylphenoxy)-2-oxoethyl)-1H-1,2,3-triazol-4-yl)methyl-2-(1,3-dimethyl-2,6-dioxo-1,2,3,6-tetrahydro-7H-purin-7-yl)acetate]", "values": [{"measurement": "viability at 24 h, 50 µM", "setting": "[1]", "result": "97 ± 0.6", "unit": "%"}, {"measurement": "inhibition at 25 µM", "setting": "[2]", "result": "68.6 ± 0.92", "unit": "%"}]}]}
